Assay results from patent publication US7648989B2, “Indolylmaleimide derivatives as PKC inhibitors” (Novartis AG, priority 2004, dated 2010).

Key:
Human recombinant PKCθ = Human recombinant PKCθ (Homo sapiens, UniProt Q04759); assay: Protein Kinase Cθ assay; format: biochemical; settings: selectivity ratio relative to PKCα
Description: (§1) The compounds of the invention are tested for their activity on different PKC isoforms according to the following method. Assay is performed in a white with clear bottom 384-well microtiterplate with non-binding surface. The reaction mixture (25 μl) contains 1.5 μM of a tridecapeptide acceptor substrate that mimics the pseudo substrate sequence of PKC α with the Ala→Ser replacement, 10 μM ^33P-ATP, 10 mM Mg(NO3)2, 0.2 mM CaCl2, PKC at a protein concentration varying from 25 to 400 ng/ml (depending on the isotype used), lipid vesicles (containing 30 mol % phosphatidylserine, 5 mol % DAG and 65 mol % phosphatidylcholine) at a final lipid concentration of 0.5 mM, in 20 mM Tris-HCl buffer pH 7.4+0.1% BSA. Incubation is performed for 60 min at room temperature.
Human recombinant PKCθ is used under the assay conditions as described above.

[1] = test system: spleen cells from CBA and BALB/c mice (MLR); bone marrow cells from CBA mice (BM); assay: Allogeneic Mixed Lymphocyte Reaction (MLR) assay compared with Bone Marrow Proliferative (BM) assay; format: cell-based; settings: mouse MLR and mouse bone marrow proliferation, 3H-thymidine incorporation
Description: Bone marrow cells from CBA mice (2.5×10^4 cells per well in flat bottom tissue culture microtiter plates) are incubated in 100 μl RPMI medium containing 10% FCS, 100 U/ml penicillin, 100 μg/ml streptomycin (Gibco BRL, Basel, Switzerland), 50 μM 2-mercaptoethanol (Fluka, Buchs, Switzerland), WEHI-3 conditioned medium (7.5% v/v) and L929 conditioned medium (3% v/v) as a source of growth factors and serially diluted compounds. Seven three-fold dilution steps in duplicates per test compound are performed. After four days of incubation 1 μCi ^3H-thymidine is added. Cells are harvested after an additional five-hour incubation period, and incorporated ^3H-thymidine is determined according to standard procedures. Conditioned media are prepared as follows. WEHI-3 cells (ATCC TIB68) and L929 cells (ATCC CCL 1) are grown in RPMI medium until confluence for 4 days and one week, respectively. […]
Briefly, spleen cells from CBA and BALB/c mice (1.6×10^5 cells from each strain per well in flat bottom tissue culture microtiter plates, 3.2×10^5 in total) are incubated in RPMI medium containing 10% FCS, 100 U/ml penicillin, 100 μg/ml streptomycin (Gibco BRL, Basel, Switzerland), 50 μM 2-mercaptoethanol (Fluka, Buchs, Switzerland) and serially diluted compounds. […] Cells are harvested after an additional five-hour incubation period, and incorporated ^3H-thymidine is determined according to standard procedures. […]

Human recombinant PKCδ = biological target: T1, Human recombinant PKCδ (Homo sapiens, UniProt Q05655); assay: Protein Kinase Cδ assay; format: biochemical; settings: selectivity ratio relative to PKCα
T1 construct: purchased Oxford Biomedical Research
T1 sequence (Q05655 whole entry): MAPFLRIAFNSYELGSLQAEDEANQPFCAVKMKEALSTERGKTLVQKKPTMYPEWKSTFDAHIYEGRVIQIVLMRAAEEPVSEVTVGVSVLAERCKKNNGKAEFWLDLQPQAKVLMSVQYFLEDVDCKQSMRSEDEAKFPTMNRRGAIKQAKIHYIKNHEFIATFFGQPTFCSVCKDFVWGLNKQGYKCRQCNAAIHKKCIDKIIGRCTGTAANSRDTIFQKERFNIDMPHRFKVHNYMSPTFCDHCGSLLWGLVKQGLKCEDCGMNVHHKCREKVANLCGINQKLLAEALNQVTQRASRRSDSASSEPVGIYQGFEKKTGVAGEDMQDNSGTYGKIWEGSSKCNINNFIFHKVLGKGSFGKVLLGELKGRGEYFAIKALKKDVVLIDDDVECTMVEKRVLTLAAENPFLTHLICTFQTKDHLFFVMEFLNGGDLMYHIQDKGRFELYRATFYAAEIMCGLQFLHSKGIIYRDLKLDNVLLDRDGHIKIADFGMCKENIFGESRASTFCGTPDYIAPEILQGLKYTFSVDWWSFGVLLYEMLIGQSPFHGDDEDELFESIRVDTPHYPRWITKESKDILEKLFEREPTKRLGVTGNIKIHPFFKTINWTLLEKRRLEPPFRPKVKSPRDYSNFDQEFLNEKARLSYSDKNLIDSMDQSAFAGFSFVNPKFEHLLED
Description: as §1
Human recombinant PKCδ is obtained from Oxford Biomedical Research and is used under the assay conditions as described under Section A.1 above.

Human recombinant PKCη = biological target: T2, Human recombinant PKCη (Homo sapiens, UniProt P24723); assay: Protein Kinase Cη assay; format: biochemical; settings: selectivity ratio relative to PKCα
T2 construct: purchased PanVera
T2 sequence (P24723 whole entry): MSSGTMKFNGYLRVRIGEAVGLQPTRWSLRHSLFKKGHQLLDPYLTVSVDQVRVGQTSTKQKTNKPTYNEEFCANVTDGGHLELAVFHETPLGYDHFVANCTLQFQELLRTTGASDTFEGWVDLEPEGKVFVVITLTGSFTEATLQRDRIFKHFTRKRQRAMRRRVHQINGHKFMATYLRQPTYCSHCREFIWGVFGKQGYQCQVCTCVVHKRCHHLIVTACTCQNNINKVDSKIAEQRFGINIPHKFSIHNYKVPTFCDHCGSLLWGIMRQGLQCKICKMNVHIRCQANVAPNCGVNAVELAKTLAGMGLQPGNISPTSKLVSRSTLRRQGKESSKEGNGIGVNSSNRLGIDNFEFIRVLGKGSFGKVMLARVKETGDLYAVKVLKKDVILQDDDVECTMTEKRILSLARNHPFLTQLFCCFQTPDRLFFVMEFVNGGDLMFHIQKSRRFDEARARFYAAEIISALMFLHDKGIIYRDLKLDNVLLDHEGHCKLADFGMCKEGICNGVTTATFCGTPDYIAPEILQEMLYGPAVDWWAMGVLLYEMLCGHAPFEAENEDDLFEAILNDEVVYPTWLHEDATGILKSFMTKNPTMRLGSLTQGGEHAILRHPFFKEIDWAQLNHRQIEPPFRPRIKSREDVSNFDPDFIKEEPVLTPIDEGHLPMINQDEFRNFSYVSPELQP
Description: as §1
Human recombinant PKCη is obtained from PanVera and is used under the assay conditions as described under Section A.1 above.

Human recombinant PKCε = biological target: T3, Human recombinant PKCε (Homo sapiens, UniProt Q02156); assay: Protein Kinase Cε assay; format: biochemical; settings: selectivity ratio relative to PKCα
T3 construct: purchased Oxford Biomedical Research
T3 sequence (Q02156 1-737): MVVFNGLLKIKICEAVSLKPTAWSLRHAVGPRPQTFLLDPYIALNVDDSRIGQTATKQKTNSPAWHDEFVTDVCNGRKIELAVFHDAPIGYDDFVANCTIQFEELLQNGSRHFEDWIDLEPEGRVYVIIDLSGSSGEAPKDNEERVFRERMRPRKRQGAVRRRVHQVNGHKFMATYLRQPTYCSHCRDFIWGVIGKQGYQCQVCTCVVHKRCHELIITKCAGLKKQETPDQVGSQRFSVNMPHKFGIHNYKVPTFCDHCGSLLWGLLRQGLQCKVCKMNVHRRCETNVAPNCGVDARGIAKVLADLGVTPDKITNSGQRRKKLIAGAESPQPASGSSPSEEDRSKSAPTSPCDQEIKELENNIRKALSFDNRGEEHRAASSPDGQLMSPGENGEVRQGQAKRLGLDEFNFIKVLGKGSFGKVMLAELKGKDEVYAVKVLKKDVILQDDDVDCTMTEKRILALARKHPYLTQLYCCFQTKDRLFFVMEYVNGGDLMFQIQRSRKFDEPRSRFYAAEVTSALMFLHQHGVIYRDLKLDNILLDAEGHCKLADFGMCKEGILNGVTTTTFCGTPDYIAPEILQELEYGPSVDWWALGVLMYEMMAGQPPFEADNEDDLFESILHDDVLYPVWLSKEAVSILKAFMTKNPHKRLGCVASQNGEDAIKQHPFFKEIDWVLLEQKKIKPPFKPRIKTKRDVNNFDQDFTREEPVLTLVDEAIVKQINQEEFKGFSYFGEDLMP
Description: as §1
Human recombinant PKCε is obtained from Oxford Biomedical Research and is used under the assay conditions as described under Section A.1 above.

Human recombinant PKCβ1 = biological target: T4, Human recombinant PKCβ1 (Homo sapiens, UniProt P05771); assay: Protein Kinase Cβ1 assay; format: biochemical; settings: selectivity ratio relative to PKCα
T4 construct: purchased Oxford Biomedical Research
T4 sequence (P05771 whole entry): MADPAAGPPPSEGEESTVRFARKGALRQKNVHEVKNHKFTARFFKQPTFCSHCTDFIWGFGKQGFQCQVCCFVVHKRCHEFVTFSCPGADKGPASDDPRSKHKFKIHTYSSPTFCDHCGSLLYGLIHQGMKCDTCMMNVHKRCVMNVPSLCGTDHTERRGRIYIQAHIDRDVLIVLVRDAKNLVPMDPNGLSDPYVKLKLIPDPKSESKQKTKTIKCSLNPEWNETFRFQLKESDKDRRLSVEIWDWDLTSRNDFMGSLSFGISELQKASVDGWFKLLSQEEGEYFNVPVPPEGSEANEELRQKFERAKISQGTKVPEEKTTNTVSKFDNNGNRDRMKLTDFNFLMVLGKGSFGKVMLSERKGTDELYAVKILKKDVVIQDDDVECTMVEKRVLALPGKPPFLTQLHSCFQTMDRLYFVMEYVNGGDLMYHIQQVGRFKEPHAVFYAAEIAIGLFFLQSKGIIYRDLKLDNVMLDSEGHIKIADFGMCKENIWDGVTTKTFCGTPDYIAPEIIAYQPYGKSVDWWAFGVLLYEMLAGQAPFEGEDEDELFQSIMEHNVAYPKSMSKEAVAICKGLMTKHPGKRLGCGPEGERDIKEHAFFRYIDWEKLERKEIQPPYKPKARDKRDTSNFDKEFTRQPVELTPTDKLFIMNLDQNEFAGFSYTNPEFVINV
Description: as §1
Human recombinant PKCβ1 is obtained from Oxford Biomedical Research and is used under the assay conditions as described under Section A.1 above.

Human recombinant PKCθ, sequence (Q04759 whole entry, canonical isoform): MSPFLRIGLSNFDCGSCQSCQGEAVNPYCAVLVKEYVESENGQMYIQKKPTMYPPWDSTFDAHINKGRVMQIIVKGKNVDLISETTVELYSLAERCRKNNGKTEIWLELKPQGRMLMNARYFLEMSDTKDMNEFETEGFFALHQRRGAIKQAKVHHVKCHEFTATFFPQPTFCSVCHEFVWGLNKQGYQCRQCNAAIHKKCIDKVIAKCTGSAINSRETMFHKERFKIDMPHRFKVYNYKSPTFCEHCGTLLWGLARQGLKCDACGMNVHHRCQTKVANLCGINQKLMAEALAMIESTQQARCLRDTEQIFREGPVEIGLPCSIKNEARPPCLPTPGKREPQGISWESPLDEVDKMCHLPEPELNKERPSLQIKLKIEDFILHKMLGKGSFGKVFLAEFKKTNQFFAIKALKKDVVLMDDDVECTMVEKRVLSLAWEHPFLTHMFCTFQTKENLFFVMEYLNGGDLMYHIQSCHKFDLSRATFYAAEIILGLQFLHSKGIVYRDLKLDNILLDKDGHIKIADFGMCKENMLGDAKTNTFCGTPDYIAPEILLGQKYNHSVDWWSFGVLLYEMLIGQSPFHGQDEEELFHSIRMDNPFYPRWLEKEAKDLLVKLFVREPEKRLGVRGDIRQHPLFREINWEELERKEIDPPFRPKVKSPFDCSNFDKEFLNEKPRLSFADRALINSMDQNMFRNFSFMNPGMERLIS

Row | Structure (SMILES) | θ/α: ratio of the IC50 value for PKC θ to the IC50 value for PKCα (Human recombinant PKCθ) | MLR/BM: ratio of the IC50 value as determined by the MLR assay to the IC50 value as determined by the BM assay [1] | δ/α: ratio of the IC50 value for PKC δ to the IC50 value for PKCα (Human recombinant PKCδ) | η/α: ratio of the IC50 value for PKC η to the IC50 value for PKCα (Human recombinant PKCη) | ε/α: ratio of the IC50 value for PKC ε to the IC50 value for PKCα (Human recombinant PKCε) | β/α: ratio of the IC50 value for PKC β to the IC50 value for PKCα (Human recombinant PKCβ1)
1 | CN(C)Cc1ccc2ccc(Cl)c(C3=C(c4cn(C)c5ccccc45)C(=O)NC3=O)c2c1 [Example 1, 3-(2-Chloro-7-dimethylaminomethyl-naphthalen-1-yl)-4-(1-methyl-1H-indol-3-yl)-pyrrole-2,5-dione] | 90.8 | 21.6 | 66.4 | 140.2 | 122.6 | 1.2
2 | Cn1c2ccccc2c2c3c(c4c5ccccc5n(CCC#N)c4c21)CNC3=O [Example 47, Gö 6976] | 222.3 | 2.1 | 120.5 | 118.7 | 45.8 | 5.3
